Assay results reported in PubChem BioAssay AID504479 (NMMLSC, 2011).
The source made the active and inactive calls.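 Rule for the calls: active = GFP ratio vs DMSO below 0.65 in a strain, using the primary screen cutoff set for that strain's protein target; inactive = the rest.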

Key:
Experiment in all cases: GFP reporter expression in TORC1-bypass yeast, mechanism study for yeast TOR pathway modulator project, S. cerevisiae, TORC1 bypass vs wild-type strains (AID 504479)
Conditions in all cases: fluorescence ratio vs DMSO, at 10 µM
[1] = tested on: YNL142W
[2] = tested on: YCL025C
[3] = tested on: YKL103C
[4] = tested on: BY4741
[5] = tested on: YBR084C-A
[6] = tested on: YCR005C
[7] = MEP2-GFP in TORC1 bypass strain, stronger effect = higher value
[8] = AGP1-GFP in TORC1 bypass strain, stronger effect = higher value
[9] = LAP4-GFP in TORC1 bypass strain, stronger effect = higher value
[10] = RPL19A-GFP in TORC1 bypass strain, stronger effect = lower value
[11] = CIT2-GFP in TORC1 bypass strain, stronger effect = higher value

| SMILES | GFP ratio vs DMSO [1, 7] | GFP ratio vs DMSO [1] | GFP ratio vs DMSO [2, 8] | GFP ratio vs DMSO [2] | GFP ratio vs DMSO [3, 9] | GFP ratio vs DMSO [3] | GFP ratio vs DMSO [4] | GFP ratio vs DMSO [5, 10] | GFP ratio vs DMSO [5] | GFP ratio vs DMSO [6, 11] | GFP ratio vs DMSO [6] |
| --- | --- | --- | --- | --- | --- | --- | --- | --- | --- | --- | --- |
| CO[C@H]1C[C@@H]2CC[C@@H](C)[C@@](O)(O2)C(=O)C(=O)N2CCCC[C@H]2C(=O)O[C@H]([C@H](C)C[C@@H]2CC[C@@H](O)[C@H](OC)C2)CC(=O)[C@H](C)/C=C(\C)[C@@H](O)[C@@H](OC)C(=O)[C@H](C)C[C@H](C)/C=C/C=C/C=C/1C | 1.01 | 12.5 | 1.51 | 2.28 | 1.17 | 2.52 | 1.1 (inactive) | 0.67 | 0.597 | 2.4 | 3.29 |
| CC(Oc1ccc(Cl)cc1)C(=O)NNC(=S)NC(=O)c1ccco1 (stereo unspecified) | 1.2 | 1.48 (inactive) | 0.847 | 0.99 (inactive) | 1.7 | 2.67 | 1.44 (inactive) | 1.25 | 1.15 (inactive) | 0.788 | 0.971 (inactive) |
| Cc1cc(C(=O)Nc2nc(-c3ccccn3)cs2)ccc1[N+](=O)[O-] | 1.04 | 0.972 (inactive) | 1.03 | 1.05 (inactive) | 0.998 | 1.02 (inactive) | 0.896 (inactive) | 0.905 | 0.985 (inactive) | 0.839 | 0.907 (inactive) |
| COc1ccc([N+](=O)[O-])c(S(=O)(=O)c2ccccc2)n1 | 0.877 | 1.03 (inactive) | 0.971 | 1.14 (inactive) | 1.33 | 1.97 | 0.896 (inactive) | 0.924 | 0.967 (inactive) | 0.862 | 0.792 (inactive) |
| N/C(Cc1ccc(Cl)cc1)=N\OC(=O)c1cccc2ccccc12 | 1.05 | 1.23 (inactive) | 0.679 | 0.833 (inactive) | 0.525 | 1.24 (inactive) | 1.38 (inactive) | 0.818 | 0.76 (inactive) | 0.748 | 2.21 |
| CC(C)(C)n1nc(-c2ccc(Cl)cc2)c2c(N)ncnc21 | 0.887 | 1.04 (inactive) | 0.927 | 0.943 (inactive) | 1.2 | 1.48 (inactive) | 0.794 (inactive) | 0.612 | 0.547 | 0.547 | 0.359 (inactive) |
| O=C(Oc1ccnc2cc(Cl)ccc12)N1CCCCCC1 | 0.897 | 1.96 | 1.12 | 1.78 | 0.997 | 1.15 (inactive) | 1 (inactive) | 0.82 | 1.19 (inactive) | 0.708 | 0.635 (inactive) |
| CCCOc1ccc(C(=O)NNC(=S)NC(=O)CC)cc1 | 1.3 | 1.24 (inactive) | 0.969 | 1.17 (inactive) | 1.92 | 2.96 | 1.32 (inactive) | 1.36 | 1.33 (inactive) | 0.905 | 0.994 (inactive) |
| CC(C)(C)C(=O)C(Cl)C(=O)Nc1ccccc1 (stereo unspecified) | 0.969 | 1.24 (inactive) | 0.833 | 1.2 (inactive) | 1.5 | 2.76 | 0.941 (inactive) | 0.997 | 0.885 (inactive) | 1.58 | 1.65 |
| Cc1ccc(C2=NOC(=O)/C2=C\c2ccc(C)o2)cc1 | 1.49 | 1.24 (inactive) | 0.701 | 0.907 (inactive) | 0.971 | 1.52 | 1.74 (inactive) | 0.949 | 1.01 (inactive) | 1.1 | 1.24 (inactive) |
| CSC1=NS(=O)(=O)c2c(C)nn(C)c2S1 | 0.862 | 0.972 (inactive) | 0.961 | 1.01 (inactive) | 1.06 | 1.36 (inactive) | 0.833 (inactive) | 0.9 | 0.887 (inactive) | 0.826 | 0.78 (inactive) |
| CC1=NN(c2ccccc2)C(=O)C1C(c1ccccc1[N+](=O)[O-])C(C#N)C#N (stereo unspecified) | 0.948 | 1.03 (inactive) | 0.682 | 0.947 (inactive) | 1.44 | 2.26 | 0.941 (inactive) | 1.04 | 1.09 (inactive) | 1.15 | 1.13 (inactive) |
| COc1ccc(C(=O)NNC(=S)NC(=O)/C=C/c2cccs2)cc1 | 1 | 1.15 (inactive) | 0.916 | 1.18 (inactive) | 1.16 | 1.72 | 1.24 (inactive) | 1.04 | 1.27 (inactive) | 0.971 | 1.2 (inactive) |
| O=S(=O)(CCN(CCS(=O)(=O)C(F)(F)F)CC1CCCO1)C(F)(F)F (stereo unspecified) | 0.942 | 0.986 (inactive) | 0.817 | 0.958 (inactive) | 1.2 | 1.85 | 0.958 (inactive) | 1.07 | 1.05 (inactive) | 1.29 | 1.41 (inactive) |
| Clc1ccc(N=c2ssnc2Cl)cc1 | 1.08 | 1.04 (inactive) | 0.884 | 0.946 (inactive) | 1.29 | 1.64 | 1.09 (inactive) | 1.08 | 1.02 (inactive) | 1.02 | 1.25 (inactive) |
| O=[N+]([O-])c1ccc(S(=O)(=O)c2cccc(C(F)(F)F)c2)nc1 | 1.04 | 1.52 (inactive) | 0.813 | 1.04 (inactive) | 1.63 | 2.2 | 1.03 (inactive) | 0.969 | 0.902 (inactive) | 0.934 | 0.976 (inactive) |
| COc1ccc([N+](=O)[O-])c(S(=O)(=O)c2ccc(Cl)cc2)n1 | 1.01 | 1.24 (inactive) | 0.905 | 1.18 (inactive) | 1.92 | 2.84 | 1.04 (inactive) | 0.937 | 0.829 (inactive) | 0.761 | 0.9 (inactive) |
| Cn1ncc(S(=O)(=O)Cc2ccccc2)c(Cl)c1=O | 0.971 | 1.46 (inactive) | 0.801 | 0.984 (inactive) | 1.56 | 1.63 | 1.31 (inactive) | 0.786 | 0.76 (inactive) | 1.02 | 1.15 (inactive) |
| O=C(NC(=S)NNC(=O)c1cnccn1)c1ccc(F)cc1 | 0.971 | 1.07 (inactive) | 0.606 | 0.808 (inactive) | 1.35 | 1.64 | 0.925 (inactive) | 0.827 | 0.877 (inactive) | 0.691 | 0.716 (inactive) |
| O=[N+]([O-])c1ccc(O)c2ncccc12 | 1.06 | 1.21 (inactive) | 0.99 | 1.14 (inactive) | 1.88 | 3.01 | 1.4 (inactive) | 1.18 | 1.23 (inactive) | 0.748 | 1.27 (inactive) |
| O=C(CCc1ccccc1)NNC(=S)NC(=O)c1ccccc1 | 1.28 | 1.3 (inactive) | 0.882 | 1.09 (inactive) | 1.88 | 3.08 | 1.32 (inactive) | 1.33 | 1.31 (inactive) | 0.847 | 1.04 (inactive) |
